Data taken from patent publication US20260297080A1, “BICYCLIC COMPOUNDS AS CDK INHIBITORS” (BeOne Medicines I GmbH, priority 2022, published 2026).

Columns and labels:
CDK2/Cyclin E1 = CDK2/Cyclin E1 (Homo sapiens, UniProt P24941); assay: CDK2/Cyclin E1 Biochemical Assay (TR-FRET), 0.060 mM ATP; conditions: 0.15 μM Rb (Ser780)-biotin substrate, pH7.0, 60 min preincubation, 120 min reaction, room temperature
In short: (§1)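 Phosphorylation of a biotin-tagged Rb Ser780 peptide (0.15 μM) is measured by time-resolved FRET between a europium-labelled phospho-specific antibody and streptavidin-XL665. Compound (0–10 μM) sits with enzyme 60 min first; the kinase reaction then proceeds 120 min at room temperature, pH 7.0.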

CDK1/Cyclin B1 = CDK1/Cyclin B1 (Homo sapiens, UniProt P06493); assay: CDK1/Cyclin B1 Biochemical Assay (TR-FRET), 0.015 mM ATP; conditions: 0.15 μM Rb (Ser780)-biotin substrate, pH7.0, 60 min preincubation, 120 min reaction, room temperature
In short: as §1

Chain of CDK1/Cyclin B1 (P06493 whole entry): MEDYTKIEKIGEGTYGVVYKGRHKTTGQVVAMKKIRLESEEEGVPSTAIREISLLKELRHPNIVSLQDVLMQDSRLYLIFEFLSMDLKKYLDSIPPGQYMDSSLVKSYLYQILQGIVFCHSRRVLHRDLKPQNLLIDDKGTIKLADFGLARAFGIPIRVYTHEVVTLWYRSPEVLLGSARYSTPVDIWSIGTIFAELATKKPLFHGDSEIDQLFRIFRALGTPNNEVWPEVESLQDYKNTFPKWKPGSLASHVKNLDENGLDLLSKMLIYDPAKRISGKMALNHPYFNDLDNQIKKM
Chain of CDK1/Cyclin B1 (P14635 whole entry partner): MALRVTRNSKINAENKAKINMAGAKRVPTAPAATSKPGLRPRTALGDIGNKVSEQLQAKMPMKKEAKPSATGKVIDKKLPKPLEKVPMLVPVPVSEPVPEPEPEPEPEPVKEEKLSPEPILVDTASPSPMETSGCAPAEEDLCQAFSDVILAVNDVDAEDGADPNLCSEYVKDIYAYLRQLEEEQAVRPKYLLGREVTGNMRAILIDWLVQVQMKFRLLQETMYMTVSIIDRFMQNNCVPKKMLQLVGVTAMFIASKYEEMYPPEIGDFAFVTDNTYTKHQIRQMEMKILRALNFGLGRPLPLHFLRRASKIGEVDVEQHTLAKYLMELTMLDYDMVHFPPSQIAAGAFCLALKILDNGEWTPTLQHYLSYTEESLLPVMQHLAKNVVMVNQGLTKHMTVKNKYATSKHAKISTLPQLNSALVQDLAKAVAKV

Compound | IC50 (CDK2/Cyclin E1) | IC50 (CDK1/Cyclin B1)
CC(C)NC(=O)O[C@H]1CC[C@@H](c2cc(Nc3ccc4c(c3)CS(=O)(=O)N4CC3CCC3)n[nH]2)C1 (relative stereo) [Example 211, cis-3-(3-((1-(cyclobutylmethyl)-2,2-dioxido-1,3-dihydrobenzo[c]isothiazol-5-yl)amino)-1H-pyrazol-5-yl)cyclopentyl isopropylcarbamate] | 8.4 nM | 197 nM
COc1c(Nc2cc([C@@H]3CC[C@H](OC(=O)NC(C)C)C3)[nH]n2)ccc2c1S(=O)(=O)NC2(C)C (relative stereo) [Example 181, cis-3-(3-((7-methoxy-3,3-dimethyl-1,1-dioxido-2,3-dihydrobenzo[d]isothiazol-6-yl)amino)-1H-pyrazol-5-yl)cyclopentyl isopropylcarbamate] | 58 nM | 1250 nM
CC(C)NC(=O)O[C@H]1CC[C@@H](c2cc(Nc3ccc4c(c3F)CN(C(C)C)S4(=O)=O)n[nH]2)C1 (relative stereo) [Example 65, cis-3-(3-((4-fluoro-2-isopropyl-1,1-dioxido-2,3-dihydrobenzo[d]isothiazol-5-yl)amino)-1H-pyrazol-5-yl)cyclopentyl isopropylcarbamate] | 6.9 nM | 299 nM
CCCNC(=O)O[C@H]1CC[C@@H](c2cc(Nc3ccc4c(c3)CNS4(=O)=O)n[nH]2)C1 (relative stereo) [Example 178, cis-3-(3-((1,1-dioxido-2,3-dihydrobenzo[d]isothiazol-5-yl)amino)-1H-pyrazol-5-yl)cyclopentyl propylcarbamate] | 1.5 nM | 41 nM
CC(C)NC(=O)O[C@H]1CC[C@@H](c2cc(Nc3ccc4c(c3O)CNS4(=O)=O)n[nH]2)C1 (relative stereo) [Example 405, cis-3-(3-((4-hydroxy-1,1-dioxido-2,3-dihydrobenzo[d]isothiazol-5-yl)amino)-1H-pyrazol-5-yl)cyclopentyl isopropylcarbamate] | 10 nM | 644 nM
CC(C)NC(=O)O[C@H]1C[C@@H](c2cc(Nc3cc4c(cc3F)S(=O)(=O)NC4)n[nH]2)C1 [Example 397, (1s,3s)-3-(3-((6-fluoro-1,1-dioxido-2,3-dihydrobenzo[d]isothiazol-5-yl)amino)-1H-pyrazol-5-yl)cyclobutyl isopropylcarbamate] | 103 nM | 2020 nM
CC(C)NC(=O)O[C@H]1CC[C@@H](c2cc(Nc3ccc4c(c3)CS(=O)(=O)N4)n[nH]2)C1 (single isomer, unassigned) [Example 7b] | 0.9 nM | 17 nM
CN1c2ccc(Nc3cc([C@@H]4CC[C@H](OC(=O)NC(C)(C)CO)C4)[nH]n3)cc2CS1(=O)=O (single isomer, unassigned) [Example 325b, cis-3-(3-((1-methyl-2,2-dioxido-1,3-dihydrobenzo[c]isothiazol-5-yl)amino)-1H-pyrazol-5-yl)cyclopentyl(1-hydroxy-2-methylpropan-2-yl)carbamate] | 2.3 nM | 71 nM
CCCNC(=O)O[C@H]1CC[C@@H](c2cc(Nc3ccc4c(c3)CS(=O)(=O)N4)n[nH]2)C1 [Example 195b] | 17 nM | 67 nM
CC(C)NC(=O)O[C@H]1CC[C@@H](c2cc(Nc3ccc4c(c3F)CN(C3CCN(C)C3=O)S4(=O)=O)n[nH]2)C1 (relative stereo) [Example 93, cis-3-(3-((4-fluoro-2-(1-methyl-2-oxopyrrolidin-3-yl)-1,1-dioxido-2,3-dihydrobenzo[d]isothiazol-5-yl)amino)-1H-pyrazol-5-yl)cyclopentyl isopropylcarbamate] | 6.3 nM | 531 nM
CC(C)NC(=O)O[C@H]1CC[C@@H](c2cc(Nc3ccc4c(c3F)CN(CC3CCC3)S4(=O)=O)n[nH]2)C1 (relative stereo) [Example 96, cis-3-(3-((2-(cyclobutylmethyl)-4-fluoro-1,1-dioxido-2,3-dihydrobenzo[d]isothiazol-5-yl)amino)-1H-pyrazol-5-yl)cyclopentyl isopropylcarbamate] | 36 nM | 2020 nM
Cc1c(Nc2cc([C@@H]3CC[C@H](OC(=O)NC(C)C)C3)[nH]n2)ccc2c1CN(CCO)S2(=O)=O (relative stereo) [Example 37, cis-3-(3-((2-(2-hydroxyethyl)-4-methyl-1,1-dioxido-2,3-dihydrobenzo[d]isothiazol-5-yl)amino)-1H-pyrazol-5-yl)cyclopentyl isopropylcarbamate] | 7.2 nM | 313 nM
CC(C)NC(=O)O[C@H]1CC[C@@H](c2cc(Nc3ccc4c(c3F)S(=O)(=O)NC4)n[nH]2)C1 (single isomer, unassigned) [Example 186a, cis-3-(3-((7-fluoro-1,1-dioxido-2,3-dihydrobenzo[d]isothiazol-6-yl)amino)-1H-pyrazol-5-yl)cyclopentyl isopropylcarbamate] | 4.8 nM | 255 nM
O=C(NC1CCCC1)O[C@H]1CC[C@@H](c2cc(Nc3ccc4c(c3)CS(=O)(=O)N4)n[nH]2)C1 (single isomer, unassigned) [Example 381b, cis-3-(3-((2,2-dioxido-1,3-dihydrobenzo[c]isothiazol-5-yl)amino)-1H-pyrazol-5-yl)cyclopentyl cyclopentylcarbamate] | 0.9 nM | 19 nM
CC1(NC(=O)O[C@H]2CC[C@@H](c3cc(Nc4ccc5c(c4F)CN(C4CC4)S5(=O)=O)n[nH]3)C2)CC1 (single isomer, unassigned) [Example 119a, cis-3-(3-((2-cyclopropyl-4-fluoro-1,1-dioxido-2,3-dihydrobenzo[d]isothiazol-5-yl)amino)-1H-pyrazol-5-yl)cyclopentyl(1-methylcyclopropyl)carbamate] | 2.5 nM | 216 nM
CC(C)NC(=O)O[C@H]1CC[C@@H](c2cc(Nc3ccc4c(c3F)CN(C3CC(O)C3)S4(=O)=O)n[nH]2)C1 (relative stereo) [Example 84, 3-(3-((4-fluoro-2-(3-hydroxycyclobutyl)-1,1-dioxido-2,3-dihydrobenzo[d]isothiazol-5-yl)amino)-1H-pyrazol-5-yl)cyclopentyl isopropylcarbamate] | 8.6 nM | 390 nM
O=C(NC1CCC1)O[C@H]1CC[C@@H](c2cc(Nc3ccc4c(c3)CS(=O)(=O)N4)n[nH]2)C1 (single isomer, unassigned) [Example 380a, cis-3-(3-((2,2-dioxido-1,3-dihydrobenzo[c]isothiazol-5-yl)amino)-1H-pyrazol-5-yl)cyclopentyl cyclobutylcarbamate] | 1.6 nM | 70 nM
Cc1cc2c(cc1Nc1cc([C@@H]3CC[C@H](OC(=O)NC(C)C)C3)[nH]n1)CS(=O)(=O)N2 (relative stereo) [Example 241, 3-(3-((6-methyl-2,2-dioxido-1,3-dihydrobenzo[c]isothiazol-5-yl)amino)-1H-pyrazol-5-yl)cyclopentyl isopropylcarbamate] | 128 nM | 4470 nM
CN1c2ccc(Nc3cc([C@@H]4CC[C@H](OC(=O)NC5CC6(CCC6)C5)C4)[nH]n3)cc2CS1(=O)=O (relative stereo) [Example 224, cis-3-(3-((1-methyl-2,2-dioxido-1,3-dihydrobenzo[c]isothiazol-5-yl)amino)-1H-pyrazol-5-yl)cyclopentyl spiro[3.3]heptan-2-ylcarbamate] | 29 nM | 2580 nM
